Marks after values point to notes of the source that are not given here.
Test system: hepatofibrosis in rats
Assay: CCl4-induced hepatofibrosis in chronic hepatitis in rats
Format: in vivo, Sprague Dawley rats
Conditions: for T (Rank-sum test of fibrosis) / fiber proliferation level 0 (number of rats) / fiber proliferation level I (number of rats) / fiber proliferation level II (number of rats) / fiber proliferation level III (number of rats) / fiber proliferation level IV (number of rats) / HYP: 6 weeks; for fiber proliferation level 0 (number of rats) / fiber proliferation level I (number of rats) / fiber proliferation level II (number of rats) / fiber proliferation level III (number of rats) / fiber proliferation level IV (number of rats): n=10; for HYP: hepatic
Procedure: 120 rats were randomly divided into 12 groups, with 10 in each group, namely, a normal control group, a model group, […] Apart from the normal control group, all rats were s.c. injected 0.3 ml of 40% solution of CC14 in oil per 100 g of body weight once every 3 days for 6 weeks. Animals in the normal control group were s.c. injected 0.3 ml/100 g body weight of oil vehicle following the same schedule as the experimental groups. First dose was doubled for all animals. Six weeks later, drugs were continuously administered to animals in each group for 6 weeks. After the administration was completed, all animals were anaesthetised with i.p. injection of 20% ethyl carbamate solution (Beijing Tongxian District Yucai Fine Chemicals). Blood was collected from abdominal aorta. Hepatic lobule tissue was removed, part of which was fixed with 10% neutral foinialin solution and made into wax blocks within 24-48 hours. […] Serum HA, LN, Pc III levels and hepatic HYP level were determined according to the respective kit instructions.

**Q.** Which results are given for `O=C(/C=C/c1ccc(O)c(O)c1)O[C@H](Cc1ccc(O)c(O)c1)C(=O)O` [RA, R(+)2-{[3-(3,4-dihydroxylphenyl-(oxo-2-propenyl)oxy]3,4-dihydroxylphenylpropionic acid]}]?
**A.** T (Rank-sum test of fibrosis) (RA i.v. 2.5 mg/kg): 82*; fiber proliferation level 0 (number of rats) (RA i.v. 2.5 mg/kg): 0; fiber proliferation level I (number of rats) (RA i.v. 2.5 mg/kg): 1; fiber proliferation level II (number of rats) (RA i.v. 2.5 mg/kg): 2; fiber proliferation level III (number of rats) (RA i.v. 2.5 mg/kg): 3; fiber proliferation level IV (number of rats) (RA i.v. 2.5 mg/kg): 4; T (Rank-sum test of fibrosis) (RA i.v. 5 mg/kg): 81.5*; fiber proliferation level 0 (number of rats) (RA i.v. 5 mg/kg): 0; fiber proliferation level I (number of rats) (RA i.v. 5 mg/kg): 1; fiber proliferation level II (number of rats) (RA i.v. 5 mg/kg): 2; fiber proliferation level III (number of rats) (RA i.v. 5 mg/kg): 6; fiber proliferation level IV (number of rats) (RA i.v. 5 mg/kg): 1; T (Rank-sum test of fibrosis) (RA i.v. 25 mg/kg): 76*; fiber proliferation level 0 (number of rats) (RA i.v. 25 mg/kg): 0; fiber proliferation level I (number of rats) (RA i.v. 25 mg/kg): 2; fiber proliferation level II (number of rats) (RA i.v. 25 mg/kg): 3; fiber proliferation level III (number of rats) (RA i.v. 25 mg/kg): 4; fiber proliferation level IV (number of rats) (RA i.v. 25 mg/kg): 1; T (Rank-sum test of fibrosis) (RA i.v. 75 mg/kg): 71**; fiber proliferation level 0 (number of rats) (RA i.v. 75 mg/kg): 0; fiber proliferation level I (number of rats) (RA i.v. 75 mg/kg): 3; fiber proliferation level II (number of rats) (RA i.v. 75 mg/kg): 2; fiber proliferation level III (number of rats) (RA i.v. 75 mg/kg): 5; fiber proliferation level IV (number of rats) (RA i.v. 75 mg/kg): 0; T (Rank-sum test of fibrosis) (RA i.v. 150 mg/kg): 66**; fiber proliferation level 0 (number of rats) (RA i.v. 150 mg/kg): 0; fiber proliferation level I (number of rats) (RA i.v. 150 mg/kg): 3; fiber proliferation level II (number of rats) (RA i.v. 150 mg/kg): 4; fiber proliferation level III (number of rats) (RA i.v. 150 mg/kg): 3; fiber proliferation level IV (number of rats) (RA i.v. 150 mg/kg): 0; T (Rank-sum test of fibrosis) (RA p.o. 2.5 mg/kg): 95; fiber proliferation level 0 (number of rats) (RA p.o. 2.5 mg/kg): 0; fiber proliferation level I (number of rats) (RA p.o. 2.5 mg/kg): 1; fiber proliferation level II (number of rats) (RA p.o. 2.5 mg/kg): 2; fiber proliferation level III (number of rats) (RA p.o. 2.5 mg/kg): 3; fiber proliferation level IV (number of rats) (RA p.o. 2.5 mg/kg): 4; T (Rank-sum test of fibrosis) (RA p.o. 5 mg/kg): 77*; fiber proliferation level 0 (number of rats) (RA p.o. 5 mg/kg): 0; fiber proliferation level I (number of rats) (RA p.o. 5 mg/kg): 1; fiber proliferation level II (number of rats) (RA p.o. 5 mg/kg): 2; fiber proliferation level III (number of rats) (RA p.o. 5 mg/kg): 7; fiber proliferation level IV (number of rats) (RA p.o. 5 mg/kg): 0; T (Rank-sum test of fibrosis) (RA p.o. 25 mg/kg): 71**; fiber proliferation level 0 (number of rats) (RA p.o. 25 mg/kg): 0; fiber proliferation level I (number of rats) (RA p.o. 25 mg/kg): 3; fiber proliferation level II (number of rats) (RA p.o. 25 mg/kg): 2; fiber proliferation level III (number of rats) (RA p.o. 25 mg/kg): 5; fiber proliferation level IV (number of rats) (RA p.o. 25 mg/kg): 0; T (Rank-sum test of fibrosis) (RA p.o. 150 mg/kg): 66**; fiber proliferation level 0 (number of rats) (RA p.o. 150 mg/kg): 0; fiber proliferation level I (number of rats) (RA p.o. 150 mg/kg): 3; fiber proliferation level II (number of rats) (RA p.o. 150 mg/kg): 4; fiber proliferation level III (number of rats) (RA p.o. 150 mg/kg): 3; fiber proliferation level IV (number of rats) (RA p.o. 150 mg/kg): 0; T (Rank-sum test of fibrosis) (RA p.o. 300 mg/kg): 66**; fiber proliferation level 0 (number of rats) (RA p.o. 300 mg/kg): 0; fiber proliferation level I (number of rats) (RA p.o. 300 mg/kg): 2; fiber proliferation level II (number of rats) (RA p.o. 300 mg/kg): 5; fiber proliferation level III (number of rats) (RA p.o. 300 mg/kg): 2; fiber proliferation level IV (number of rats) (RA p.o. 300 mg/kg): 1; liver, electronic microscopic examination (RA treated groups): hepatocyte damages were alleviated; liver, light microscopic examination (HE, VG collagen staining) (RA treated groups): less fiber connective tissue hyperplasia, thinner fibrous septa and less pseudolobule formation; liver fibrosis, pathology examination (all RA treated groups vs model group): less severe fibrosis; HYP (i.v. 2.5 mg/kg): 1657 ± 124 µg/L; HYP (i.v. 5 mg/kg): 1630 ± 110 µg/L; HYP (i.v. 25 mg/kg): 1578 ± 113 µg/L; HYP (i.v. 75 mg/kg): 1278 ± 121 µg/L; HYP (i.v. 150 mg/kg): 1217 ± 143 µg/L; HYP (p.o. 2.5 mg/kg): 1724 ± 121 µg/L; HYP (p.o. 5 mg/kg): 1614 ± 121 µg/L; HYP (p.o. 25 mg/kg): 1535 ± 125 µg/L
